Measured values: patent publication US20050137222A1, “Treatment of insomnia in human patients” (H. Lundbeck A/S, priority 2003, published 2005)

Assays:
[1] = tested on: adult subjects with primary insomnia; test: Polysomnograph (PSG) study in adult subjects with primary insomnia; type: in vivo, human
Experimental: (§1) Effect is confirmed for short-term treatment in studies using acute treatment in healthy subjects exposed to a phase advance model. Assessment of effect on insomnia during intermediate term treatment duration is performed in primary insomnia subjects using treatment duration up to 4 weeks. Long term or chronic treatment is assessed in 12 month safety studies. Subject populations include primary insomnia subjects with age range 18-65 yrs (adults) and 65 and above (elderly).
(§2) Sleep maintenance is measured by either of parameters wakefulness after sleep onset, number of awakenings after sleep onset or total sleep time. […] In these studies, the effect was also confirmed by the subjects own feelings of the sleep initiation. Based both on PSG and on subjective diary recording, gaboxadol doses of 5 to 15 mg are highly preferred to achieve effect in adults and elderly (gaboxadol was administered from ½ hour before bedtime up to immediately before going to bed).

[2] = tested on: healthy subjects exposed to a phase advance model; test: Phase advance model in healthy subjects (PSG and subjective recording); type: in vivo, human
Experimental: as §1, §2

human subjects = test: EEG slow wave sleep and spectral analysis in the clinical studies; type: in vivo; conditions: similar effect range as for slow wave sleep
Text: Moreover, gaboxadol induced a dose-dependent increase in duration of slow wave sleep (SWS), that is, stages 3 and 4, which is considered the deepest stage of sleep. The effect ranged between +15 and 46% compared to placebo.

[3] = tested on: adult (18-65 yrs) primary insomnia subjects; test: 3 week placebo controlled parallel group outpatient study of daytime performance (VAS, Sheehan disability scale); type: in vivo, human; conditions: doses 5, 10 and 15 mg, about ½ hour before bedtime; 3 weeks; effect more pronounced during week 2 and 3
Experimental: The daytime performance (used interchangeably with daytime function) in adult (18-65 yrs) primary insomnia subjects (Diagnostic and Statistical Manual of Mental Disorders—Fourth Edition, […]) has been assessed in a 3 week placebo controlled parallel group, outpatient study. The performance was measured with standardized questions using a 100 point Visual Analogue Scale (VAS). The questions asked for subjects to report on their daytime ability to function, tiredness, energy and relaxedness. Subject responses were recorded in a diary in the evening on the day after each treatment night (gaboxadol was administered about ½ hour before bedtime). Moreover, daytime function was recorded once weekly using the Sheehan disability scale (Sheehan et al., 1996, “The measurement of disability,” International Clinical Psychopharmacology 11 (suppl. 3), 89-95).

animals = conditions: cited from earlier work
healthy human subjects = conditions: cited from earlier work

## Oc1noc2c1CCNC2 [gaboxadol, 4,5,6,7-tetrahydroisoxazolo(5,4-c)pyridin-3-ol]
[1]; adult subjects with primary insomnia, oral, from ½ hour before bedtime up to bedtime
  sleep maintenance as measured by polysomnograph (wakefulness after sleep onset, number of awakenings after sleep onset or total sleep time): improves sleep maintenance
[1]; primary insomnia subjects, confirmed by subjects' own feelings
  sleep initiation: facilitated sleep initiation
[2]; healthy subjects, phase advance model
  sleep maintenance as measured by polysomnograph (wakefulness after sleep onset, number of awakenings after sleep onset or total sleep time): improves sleep maintenance
[2]; healthy subjects, phase advance model, subjective
  subjects' own perception of the sleep maintenance effect: decreased wakefulness
[2]; oral, study not clearly specified in the text
  lowest dose at which the sleep maintenance effect was observed: about 5 mg per day
[2]; subjects in a phase advance model, confirmed by subjects' own feelings
  sleep initiation: facilitated sleep initiation
Human subjects
  slow wave activity in EEG spectral analysis: increase of slow wave activity
[3]
  daytime performance (weekly means of VAS questions and Sheehan disability scale): significantly improve daytime performance
animals
  nonREMS amount and nonREMS/REMS episode duration: increasing total amount of nonREMS and lengthening the duration of the nonREMS and REMS episodes
Healthy human subjects
  deep sleep: promote deep sleep
  influence on REM sleep: no disrupting influence on REM sleep
  sleep maintenance: increase sleep maintenance
